Measurements published in patent publication US20240140970A1, “A […], AND PREPARATION METHOD AND USE THEREOF” (ASCENTAWITS PHARMACEUTICALS, LTD., priority 2021, published 2024).
Values joined by “and” are separate entries in the source; they are usually repeats but may differ in a detail not shown here. Equal values may be shown once.

Tests used:
[1] = Stability of AST-2660 in human urine at −20° C. and −70° C. for one month (LC-MS/MS); type: in vitro ADME
Experimental: (§1) The detection method established in example 6 was used to detect the content of AST-2660 in the human urine to be tested.
(§2) Matrix: the mixed normal human urine containing an additive Na2HPO4·12H2O. • a: the internal standard working solution: AST-2660-D8 was taken, dissolved with methanol, and diluted to prepare a solution containing about 100 ng per 1 ml. • b: the solution to be tested (no internal standard compound was added to the solution to be tested at this time): it was obtained by taking a blood sample to be tested. • c: the standard working solution (no internal standard compound was added to the standard working solution at this time): an appropriate amount of AST-2660 was taken and accurately weighed, dissolved with methanol and diluted to prepare a solution containing about 1.0 mg per 1 ml, which was used as the standard working stock solution. An appropriate amount of the standard working stock solution was taken, added with the matrix and diluted to prepare standard working solutions with different concentrations containing about 200 ng, 160 ng, 100 ng, 50 ng, 10 ng, 2.0 ng, 1.0 ng and 0.5 ng per 1 ml, respectively. (The solution was stored at −70° C.) • d: the quality control sample solution: an appropriate amount of AST-2660 was taken and accurately weighed, dissolved with methanol, and diluted to prepare a solution containing about 10 μg per 1 ml, which was used as the quality control working stock solution. An appropriate amount of the quality control working stock solution was taken, and added with the matrix to prepare quality control working solutions with different concentrations containing about 150 ng, 60 ng, 15 ng, 1.5 ng and 0.5 ng per 1 ml. (The solution was stored at −70° C.)
(§3) The solution to be tested, the standard working solution and the quality control sample solution were thawed at room temperature and mixed uniformly. 100 μl of the above solution was respectively taken, added with 20 μl of the internal standard and 500 μl of methanol, and vortexed for 3 minutes to mix uniformly, and then centrifuged for 30 minutes at 2143 rcf. 450 μl of supernatant was taken, and then centrifuged for 10 minutes in a 96-well plate at 2143 rcf. It was obtained by taking 300 μl of supernatant.
(§4) Liquid phase conditions: A SHARC 1, 3 μm, 2.1*50 mm or chromatograph column with equivalent performance was used; methanol solution containing low content of ammonium acetate was used; mobile phase B was acetonitrile; the gradient elution was performed according to the following table; column temperature: 20° C.; injection volume: 5 μl.
(§5) Mass spectrometric conditions: electrospray ion source with negative ion scanning mode; spray potential: −4500 V; ion source temperature: 500° C.; collision energy (CE): −22 eV; declustering potential (DP): −55V; entrance potential (EP): −10V; collision chamber exit potential (CXP): −16V; dwell time: 100 ms; high purity nitrogen was used for all gases; AST-2660 ions pairs: m/z 147.0→m/z 62.9; the internal standard AST-2660-D8 ion pairs: m/z 155.0→m/z 62.9.
(§6) The AST-2660 standard working solution, blank sample, zero concentration sample, solution to be tested and quality control working solution with different concentrations after extraction were respectively taken and injected into LC-MS/MS for detection.
(§7) Calculation results: the relationship function y=f (x) of the ratio of the peak area of AST-2660 to that of the internal standard was obtained from AST-2660 standard working solutions with different concentrations. The ratio of the peak area of AST-2660 to that of the internal standard was determined from the solution to be tested after extraction, and substituted into the relationship function y=f (x) to calculate the concentration of the metabolite II in the solution to be tested.

[2] = Freeze/thaw stability of AST-2660 in human urine (LC-MS/MS); type: in vitro ADME
Experimental: as §1, §2, §3, §4, §5, §6, §7

[3] = DilQC (10-fold dilution) nominal 1500 ng/ml, 32 days at −20° C.
[4] = DilQC (10-fold dilution) nominal 1500 ng/ml, 32 days at −70° C.
[5] = QC1 nominal 1.50 ng/ml, 32 days at −70° C. (actually tested on day 34)
[6] = QC4 nominal 150 ng/ml, 32 days at −20° C.
[7] = QC4 nominal 150 ng/ml, 32 days at −70° C.
[8] = human urine, DilQC (10-fold dilution) nominal 1500 ng/ml, 3 freeze/thaw cycles at −70° C.
[9] = human urine, DilQC (10-fold dilution) nominal 1500 ng/ml, 5 freeze/thaw cycles at −70° C.
[10] = human urine, QC1 nominal 1.50 ng/ml, 3 freeze/thaw cycles at −70° C.
[11] = human urine, QC1 nominal 1.50 ng/ml, 5 freeze/thaw cycles at −70° C.
[12] = human urine, QC4 nominal 150 ng/ml, 3 freeze/thaw cycles at −70° C.
[13] = human urine, QC4 nominal 150 ng/ml, 5 freeze/thaw cycles at −20° C.
[14] = human urine, QC4 nominal 150 ng/ml, 5 freeze/thaw cycles at −70° C.

## O=P([O-])(N1CC1)N1CC1.[Na+] [AST-2660]
[1]; 32 days of storage at −20° C.
  reduction of AST-2660 content: ~90%
[1]; 32 days of storage at −70° C.
  change of AST-2660 content (in words): almost no reduction
[1]; [3]
  AST-2660 concentration, Mean value: 7.23 ng/mL
  AST-2660 concentration, single replicates: 6.87 ng/mL and 7.70 ng/mL and 7.73 ng/mL and 6.60 ng/mL
  RE (%) vs nominal: −99.5%
[1]; [4]
  AST-2660 concentration, Mean value: 1483 ng/mL
  AST-2660 concentration, single replicates: 1570 ng/mL and 1400 ng/mL and 1470 ng/mL and 1490 ng/mL
  RE (%) vs nominal: −1.2%
[1]; QC1 nominal 1.50 ng/ml, 32 days at −20° C.
  AST-2660 concentration, single replicates: <LLOQ (0.500) ng/ml
[1]; [5]
  AST-2660 concentration, Mean value: 1.71 ng/mL
  AST-2660 concentration, single replicates: 1.53 ng/mL and 1.97 ng/mL and 1.72 ng/mL and 1.60 ng/mL
  RE (%) vs nominal: 13.7%
[1]; [6]
  AST-2660 concentration, Mean value: 13.4 ng/mL
  AST-2660 concentration, single replicates: 13.1 ng/mL and 12.4 ng/mL and 12.9 ng/mL and 15.2 ng/mL
  RE (%) vs nominal: −91.1%
[1]; [7]
  AST-2660 concentration, Mean value: 161 ng/mL
  AST-2660 concentration, single replicates: 155 ng/mL and 159 ng/mL and 161 ng/mL and 168 ng/mL
  RE (%) vs nominal: 7.2%
[2]; freezing/thawing at −70° C. for up to 3 cycles, 1.5, 150 and 1500 ng/ml
  RE (accuracy), range over three concentration levels: RE: −11.8% to 12.5%
[2]; [8]
  AST-2660 concentration, Mean value: 1540 ng/mL
  AST-2660 concentration, single replicates: 1650 ng/ml and 1500 ng/ml (2×) and 1510 ng/ml
  RE (%) vs nominal: 2.7%
[2]; human urine, DilQC (10-fold dilution) nominal 1500 ng/ml, 5 freeze/thaw cycles at −20° C.
  AST-2660 concentration, single replicates: <LLOQ (5.00) ng/ml
[2]; [9]
  AST-2660 concentration, Mean value: 1508 ng/mL
  AST-2660 concentration, single replicates: 1490 ng/ml and 1500 ng/ml (2×) and 1540 ng/ml
  RE (%) vs nominal: 0.5%
[2]; [10]
  AST-2660 concentration, Mean value: 1.60 ng/mL
  AST-2660 concentration, single replicates: 1.69 ng/mL and 1.72 ng/mL and 1.47 ng/mL and 1.51 ng/mL
  RE (%) vs nominal: 6.5%
[2]; human urine, QC1 nominal 1.50 ng/ml, 5 freeze/thaw cycles at −20° C.
  AST-2660 concentration, single replicates: <LLOQ (0.500) ng/ml
[2]; [11]
  AST-2660 concentration, Mean value: 1.73 ng/mL
  AST-2660 concentration, single replicates: 2.14 ng/mL and 1.58 ng/mL and 1.68 ng/mL and 1.52 ng/mL
  RE (%) vs nominal: 15.3%
[2]; [12]
  AST-2660 concentration, Mean value: 149 ng/mL
  AST-2660 concentration, single replicates: 145 ng/ml and 148 ng/ml (2×) and 154 ng/ml
  RE (%) vs nominal: −0.8%
[2]; [13]
  AST-2660 concentration, Mean value: 13 ng/mL
  AST-2660 concentration, single replicates: 12.2 ng/mL and 13.0 ng/mL and 12.3 ng/mL and 12.5 ng/mL
  RE (%) vs nominal: −91.7%
[2]; [14]
  AST-2660 concentration, Mean value: 173 ng/mL
  AST-2660 concentration, single replicates: 172 ng/ml (2×) and 169 ng/ml and 178 ng/ml
  RE (%) vs nominal: 15.2%
[2]; human urine, freeze-thaw process from −20° C. to room temperature
  reduction of AST-2660 content: ~90%
[2]; human urine, freeze-thaw process from −70° C. to room temperature
  change of AST-2660 content (in words): almost no reduction
